# Measurements as given in PubChem BioAssay (NCI).
#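 GI50 marks 50% less growth. TGI denotes the concentration required for complete inhibition of growth.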
# How the values were obtained:
# Test in all cases: NCI tumour cell line growth inhibition, 384-well format
# SN12C renal = test system: SN12C renal
# UACC-257 melanoma = test system: UACC-257 melanoma
# A498 renal = test system: A498 renal
# M14 melanoma = test system: M14 melanoma
# UACC-62 melanoma = test system: UACC-62 melanoma
# SF-268 CNS = test system: SF-268 CNS
# RXF 393 renal = test system: RXF 393 renal
# NCI-H226 lung = test system: NCI-H226 lung
# A549 NSCLC = test system: A549 NSCLC
# NCI-H522 lung = test system: NCI-H522 lung
# SK-MEL-5 melanoma = test system: SK-MEL-5 melanoma
# SW-620 colon = test system: SW-620 colon
# SNB-19 CNS = test system: SNB-19 CNS
# K-562 leukemia = test system: K-562 leukemia
# MOLT-4 leukemia = test system: MOLT-4 leukemia
# NCI-H23 lung = test system: NCI-H23 lung
# MDA-MB-231 breast = test system: MDA-MB-231 breast
# OVCAR-8 ovarian = test system: OVCAR-8 ovarian
# BT-549 breast = test system: BT-549 breast
# CAKI-1 renal = test system: CAKI-1 renal
# HT29 colon = test system: HT29 colon
# OVCAR-4 ovarian = test system: OVCAR-4 ovarian
# HCC-2998 colon = test system: HCC-2998 colon
# CCRF-CEM leukemia = test system: CCRF-CEM leukemia
# NCI-H460 NSCLC = test system: NCI-H460 NSCLC
# NCI/ADR-RES ovarian = test system: NCI/ADR-RES ovarian
# NCI-H322M lung = test system: NCI-H322M lung
# HS 578T breast = test system: HS 578T breast
# MCF7 breast = test system: MCF7 breast
# EKVX NSCLC = test system: EKVX NSCLC
# PC-3 prostate = test system: PC-3 prostate
# SNB-75 CNS = test system: SNB-75 CNS
# DU-145 prostate = test system: DU-145 prostate
# T-47D breast = test system: T-47D breast
# MALME-3M melanoma = test system: MALME-3M melanoma
# LOX IMVI melanoma = test system: LOX IMVI melanoma
# SF-539 CNS = test system: SF-539 CNS
# OVCAR-5 ovarian = test system: OVCAR-5 ovarian
# U251 glioblastoma = test system: U251 glioblastoma
# RPMI-8226 leukemia = test system: RPMI-8226 leukemia
# MDA-MB-468 breast = test system: MDA-MB-468 breast
# IGROV1 ovarian = test system: IGROV1 ovarian
# SR leukemia = test system: SR leukemia
# TK-10 renal = test system: TK-10 renal
# COLO 205 colon = test system: COLO 205 colon
# HCT-15 colon = test system: HCT-15 colon
# HL-60(TB) leukemia = test system: HL-60(TB) leukemia
# OVCAR-3 ovarian = test system: OVCAR-3 ovarian
# MDA-MB-435 melanoma = test system: MDA-MB-435 melanoma
# HOP-62 NSCLC = test system: HOP-62 NSCLC
# ACHN renal = test system: ACHN renal
# SF-295 CNS = test system: SF-295 CNS
# HOP-92 NSCLC = test system: HOP-92 NSCLC
# 786-0 renal = test system: 786-0 renal
# KM12 colon = test system: KM12 colon
# SK-OV-3 ovarian = test system: SK-OV-3 ovarian
# SK-MEL-28 melanoma = test system: SK-MEL-28 melanoma
# UO-31 renal = test system: UO-31 renal
smiles,measurement,setting,value
CN(C)CCOc1ccc(-c2nc(-c3ccc4c(c3)CC/C4=N\O)c(-c3ccncc3)[nH]2)cc1,GI50,SN12C renal,14200 nM
same,TGI,SN12C renal,27300 nM
same,GI50,UACC-257 melanoma,25.7 nM
same,TGI,UACC-257 melanoma,164 nM
same,GI50,A498 renal,1880 nM
same,TGI,A498 renal,3310 nM
same,GI50,M14 melanoma,33.4 nM
same,TGI,M14 melanoma,839 nM
same,GI50,UACC-62 melanoma,22.6 nM
same,TGI,UACC-62 melanoma,285 nM
same,GI50,SF-268 CNS,1810 nM
same,TGI,SF-268 CNS,3220 nM
same,GI50,RXF 393 renal,1680 nM
same,TGI,RXF 393 renal,3050 nM
same,GI50,NCI-H226 lung,2320 nM
same,TGI,NCI-H226 lung,3780 nM
same,GI50,A549 NSCLC,1990 nM
same,TGI,A549 NSCLC,4020 nM
same,GI50,NCI-H522 lung,1590 nM
same,TGI,NCI-H522 lung,2950 nM
same,GI50,SK-MEL-5 melanoma,130 nM
same,TGI,SK-MEL-5 melanoma,1570 nM
same,GI50,SW-620 colon,2360 nM
same,TGI,SW-620 colon,3850 nM
same,GI50,SNB-19 CNS,2070 nM
same,TGI,SNB-19 CNS,4060 nM
same,GI50,K-562 leukemia,1970 nM
same,TGI,K-562 leukemia,3430 nM
same,GI50,MOLT-4 leukemia,2150 nM
same,TGI,MOLT-4 leukemia,3600 nM
same,GI50,NCI-H23 lung,1380 nM
same,TGI,NCI-H23 lung,2860 nM
same,GI50,MDA-MB-231 breast,1150 nM
same,TGI,MDA-MB-231 breast,2370 nM
same,GI50,OVCAR-8 ovarian,1890 nM
same,TGI,OVCAR-8 ovarian,3320 nM
same,GI50,BT-549 breast,1960 nM
same,TGI,BT-549 breast,3390 nM
same,GI50,CAKI-1 renal,1980 nM
same,TGI,CAKI-1 renal,3430 nM
same,GI50,HT29 colon,555 nM
same,TGI,HT29 colon,2060 nM
same,GI50,OVCAR-4 ovarian,2680 nM
same,TGI,OVCAR-4 ovarian,4170 nM
same,GI50,HCC-2998 colon,1690 nM
same,TGI,HCC-2998 colon,3080 nM
same,GI50,CCRF-CEM leukemia,1880 nM
same,TGI,CCRF-CEM leukemia,3290 nM
same,GI50,NCI-H460 NSCLC,1890 nM
same,TGI,NCI-H460 NSCLC,3380 nM
same,GI50,NCI/ADR-RES ovarian,21900 nM
same,TGI,NCI/ADR-RES ovarian,58300 nM
same,GI50,NCI-H322M lung,1850 nM
same,TGI,NCI-H322M lung,3510 nM
same,GI50,HS 578T breast,1880 nM
same,TGI,HS 578T breast,3290 nM
same,GI50,MCF7 breast,1460 nM
same,TGI,MCF7 breast,2810 nM
same,GI50,EKVX NSCLC,1890 nM
same,TGI,EKVX NSCLC,3430 nM
same,GI50,PC-3 prostate,1780 nM
same,TGI,PC-3 prostate,3270 nM
same,GI50,SNB-75 CNS,2070 nM
same,TGI,SNB-75 CNS,3510 nM
same,GI50,DU-145 prostate,3090 nM
same,TGI,DU-145 prostate,9610 nM
same,GI50,T-47D breast,1880 nM
same,TGI,T-47D breast,3300 nM
same,GI50,MALME-3M melanoma,10.6 nM
same,TGI,MALME-3M melanoma,34.2 nM
same,GI50,LOX IMVI melanoma,963 nM
same,TGI,LOX IMVI melanoma,2160 nM
same,GI50,SF-539 CNS,2140 nM
same,TGI,SF-539 CNS,3600 nM
same,GI50,OVCAR-5 ovarian,1860 nM
same,TGI,OVCAR-5 ovarian,3320 nM
same,GI50,U251 glioblastoma,2010 nM
same,TGI,U251 glioblastoma,3480 nM
same,GI50,RPMI-8226 leukemia,1900 nM
same,TGI,RPMI-8226 leukemia,3360 nM
same,GI50,MDA-MB-468 breast,2140 nM
same,TGI,MDA-MB-468 breast,3580 nM
same,GI50,IGROV1 ovarian,13100 nM
same,TGI,IGROV1 ovarian,25900 nM
same,GI50,SR leukemia,1710 nM
same,TGI,SR leukemia,3090 nM
same,GI50,TK-10 renal,3980 nM
same,TGI,TK-10 renal,13000 nM
same,GI50,COLO 205 colon,20.3 nM
same,TGI,COLO 205 colon,1130 nM
same,GI50,HCT-15 colon,2450 nM
same,TGI,HCT-15 colon,6460 nM
same,GI50,HL-60(TB) leukemia,941 nM
same,TGI,HL-60(TB) leukemia,2090 nM
same,GI50,OVCAR-3 ovarian,2070 nM
same,TGI,OVCAR-3 ovarian,3520 nM
same,GI50,MDA-MB-435 melanoma,58.9 nM
same,TGI,MDA-MB-435 melanoma,1600 nM
same,GI50,HOP-62 NSCLC,1850 nM
same,TGI,HOP-62 NSCLC,3260 nM
same,GI50,ACHN renal,2140 nM
same,TGI,ACHN renal,4320 nM
same,GI50,SF-295 CNS,7010 nM
same,TGI,SF-295 CNS,19100 nM
same,GI50,HOP-92 NSCLC,1740 nM
same,TGI,HOP-92 NSCLC,3120 nM
same,GI50,786-0 renal,1790 nM
same,TGI,786-0 renal,3200 nM
same,GI50,KM12 colon,1900 nM
same,TGI,KM12 colon,3330 nM
same,GI50,SK-OV-3 ovarian,1790 nM
same,TGI,SK-OV-3 ovarian,3190 nM
same,GI50,SK-MEL-28 melanoma,27.7 nM
same,TGI,SK-MEL-28 melanoma,198 nM
same,GI50,UO-31 renal,15800 nM
same,TGI,UO-31 renal,29500 nM
CC[C@]1(O)C[C@H]2CN(CCc3c([nH]c4ccccc34)[C@@](C(=O)OC)(c3cc4c(cc3OC)N(C=O)[C@H]3[C@@](O)(C(=O)OC)[C@H](OC(C)=O)[C@]5(CC)C=CCN6CC[C@]43[C@@H]65)C2)C1,TGI,UACC-257 melanoma,20200 nM
same,GI50,A498 renal,< 16.3 nM
same,TGI,A498 renal,844 nM
same,TGI,M14 melanoma,17800 nM
same,TGI,UACC-62 melanoma,26000 nM
same,TGI,SF-268 CNS,20300 nM
same,TGI,RXF 393 renal,78100 nM
same,GI50,NCI-H226 lung,39.9 nM
same,TGI,NCI-H226 lung,> 84900 nM
same,GI50,A549 NSCLC,34.6 nM
same,TGI,K-562 leukemia,< 10.8 nM
same,TGI,NCI-H23 lung,49.9 nM
same,TGI,MDA-MB-231 breast,> 93800 nM
same,GI50,OVCAR-8 ovarian,< 12.1 nM
same,TGI,OVCAR-8 ovarian,47 nM
same,TGI,BT-549 breast,32.9 nM
same,GI50,CAKI-1 renal,30.4 nM
same,TGI,CAKI-1 renal,18100 nM
same,TGI,HT29 colon,36200 nM
same,GI50,OVCAR-4 ovarian,1400 nM
same,TGI,NCI-H460 NSCLC,13.1 nM
same,GI50,NCI/ADR-RES ovarian,1870 nM
same,TGI,NCI/ADR-RES ovarian,4570 nM
same,GI50,NCI-H322M lung,34 nM
same,TGI,MCF7 breast,4320 nM
same,GI50,EKVX NSCLC,34.2 nM
same,TGI,EKVX NSCLC,> 91800 nM
same,GI50,PC-3 prostate,< 10.5 nM
same,TGI,PC-3 prostate,> 61200 nM
same,TGI,MALME-3M melanoma,29300 nM
same,TGI,SF-539 CNS,< 12.2 nM
same,GI50,OVCAR-5 ovarian,44.2 nM
same,GI50,IGROV1 ovarian,< 27.3 nM
same,TGI,IGROV1 ovarian,> 35600 nM
same,GI50,TK-10 renal,54.5 nM
same,GI50,HCT-15 colon,72 nM
same,TGI,HCT-15 colon,1310 nM
same,TGI,OVCAR-3 ovarian,< 11 nM
same,TGI,HOP-62 NSCLC,2330 nM
same,GI50,ACHN renal,262 nM
same,TGI,ACHN renal,> 95900 nM
same,GI50,SF-295 CNS,< 14.2 nM
same,TGI,SF-295 CNS,< 23.1 nM
same,GI50,HOP-92 NSCLC,< 23.2 nM
same,TGI,HOP-92 NSCLC,41100 nM
same,GI50,786-0 renal,14.3 nM
same,TGI,786-0 renal,48100 nM
same,TGI,SK-MEL-28 melanoma,56200 nM
same,GI50,UO-31 renal,446 nM
same,TGI,UO-31 renal,> 84800 nM
